Experimental data from PubChem BioAssay (NCI).
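Protocol summary: plate cells (96-well), add compound at 5 concentrations, incubate 48 h, interpolate endpoints linearly. GI50 = concentration required for 50% inhibition of growth. TGI: concentration producing complete growth inhibition.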

How the values were obtained:
Assay in all cases: NCI-60 cell line screen, 48 h
[1] = test system: SF-295 CNS
[2] = test system: BT-549 breast
[3] = test system: SNB-19 CNS
[4] = test system: NCI-H460 lung
[5] = test system: SK-MEL-5 melanoma
[6] = test system: KM12 colon
[7] = test system: U251 CNS
[8] = test system: HL-60(TB) leukemia
[9] = test system: OVCAR-8 ovarian
[10] = test system: RPMI-8226 leukemia
[11] = test system: A498 renal
[12] = test system: LOX IMVI melanoma
[13] = test system: COLO 205 colon
[14] = test system: UO-31 renal
[15] = test system: M14 melanoma
[16] = test system: SNB-75 CNS
[17] = test system: MDA-MB-231 breast
[18] = test system: SK-OV-3 ovarian
[19] = test system: A549 NSCLC
[20] = test system: OVCAR-5 ovarian
[21] = test system: NCI-H226 lung
[22] = test system: SK-MEL-2 melanoma
[23] = test system: SF-539 CNS
[24] = test system: NCI-H23 lung
[25] = test system: SW-620 colon
[26] = test system: OVCAR-4 ovarian
[27] = test system: RXF 393 renal
[28] = test system: MCF7 breast
[29] = test system: SN12C renal
[30] = test system: HCT-116 colon
[31] = test system: UACC-62 melanoma
[32] = test system: UACC-257 melanoma
[33] = test system: CCRF-CEM leukemia
[34] = test system: PC-3 prostate
[35] = test system: HCC-2998 colon
[36] = test system: 786-0 renal
[37] = test system: MDA-MB-435
[38] = test system: NCI-H522 lung
[39] = test system: ACHN renal
[40] = test system: HOP-92 NSCLC
[41] = test system: HOP-62 NSCLC
[42] = test system: HT29 colon
[43] = test system: IGROV1 ovarian
[44] = test system: OVCAR-3 ovarian
[45] = test system: NCI/ADR-RES ovarian
[46] = test system: SK-MEL-28 melanoma
[47] = test system: DU-145 prostate
[48] = test system: MOLT-4 leukemia
[49] = test system: HS 578T breast
[50] = test system: EKVX NSCLC
[51] = test system: SR leukemia
[52] = test system: SF-268 CNS
[53] = test system: HCT-15 colon
[54] = test system: K-562 leukemia
[55] = test system: MALME-3M melanoma
[56] = test system: T-47D breast
[57] = test system: TK-10 renal

## COc1ccc(-c2c(NC(=O)Nc3ccc(Cl)c(C(F)(F)F)c3)cnn2-c2ccc(S(N)(=O)=O)cc2)cc1
[1]
  GI50: 2720 nM
  TGI: 10.9 µM
[2]
  GI50: 1810 nM
  TGI: 4.4 µM
[3]
  GI50: 3.85 µM
  TGI: 14.7 µM
[4]
  GI50: 3.5 µM
  TGI: 10.4 µM
[5]
  GI50: 1900 nM
  TGI: 3.85 µM
[6]
  GI50: 3.04 µM
  TGI: 11.6 µM
[7]
  GI50: 3.3 µM
  TGI: 12.3 µM
[8]
  GI50: 2270 nM
  TGI: 5.67 µM
[9]
  GI50: 3.39 µM
  TGI: 13 µM
[10]
  GI50: 3.14 µM
  TGI: 13.5 µM
[11]
  GI50: 2840 nM
  TGI: 8.29 µM
[12]
  GI50: 2750 nM
  TGI: 8.36 µM
[13]
  GI50: 2310 nM
  TGI: 5.31 µM
[14]
  GI50: 3.39 µM
  TGI: 15.1 µM
[15]
  GI50: 3.32 µM
  TGI: 12 µM
[16]
  GI50: 2300 nM
  TGI: 13.3 µM
[17]
  GI50: 2040 nM
  TGI: 4.72 µM
[18]
  GI50: 3.69 µM
  TGI: 14 µM
[19]
  GI50: 3.46 µM
  TGI: 13.6 µM
[20]
  GI50: 3.54 µM
  TGI: 14.4 µM
[21]
  GI50: 3.23 µM
  TGI: 14.6 µM
[22]
  GI50: 2420 nM
  TGI: 5.52 µM
[23]
  GI50: 3.06 µM
  TGI: 9.9 µM
[24]
  GI50: 3.14 µM
  TGI: 12.4 µM
[25]
  GI50: 3.86 µM
  TGI: 13.8 µM
[26]
  GI50: 2900 nM
  TGI: 13.1 µM
[27]
  GI50: 2600 nM
  TGI: 9.83 µM
[28]
  GI50: 2670 nM
  TGI: 9.22 µM
[29]
  GI50: 3.58 µM
  TGI: 13.1 µM
[30]
  GI50: 2040 nM
  TGI: 4.22 µM
[31]
  GI50: 2070 nM
  TGI: 4.47 µM
[32]
  GI50: 3.29 µM
  TGI: 12 µM
[33]
  GI50: 3 µM
  TGI: 11.3 µM
[34]
  GI50: 2870 nM
  TGI: 11.4 µM
[35]
  GI50: 3.13 µM
  TGI: 8.85 µM
[36]
  GI50: 1680 nM
  TGI: 3.42 µM
[37]
  GI50: 2770 nM
  TGI: 9.6 µM
[38]
  GI50: 2980 nM
  TGI: 12.3 µM
[39]
  GI50: 3.97 µM
  TGI: 14.2 µM
[40]
  GI50: 2020 nM
  TGI: 7.32 µM
[41]
  GI50: 4.07 µM
  TGI: 16.1 µM
[42]
  GI50: 3.59 µM
  TGI: 10.9 µM
[43]
  GI50: 3.66 µM
  TGI: 21.3 µM
[44]
  GI50: 2400 nM
  TGI: 6.53 µM
[45]
  GI50: 24.7 µM
  TGI: > 100 µM
[46]
  GI50: 3.73 µM
  TGI: 13.7 µM
[47]
  GI50: 3.46 µM
  TGI: 12.1 µM
[48]
  GI50: 2010 nM
  TGI: 5.97 µM
[49]
  GI50: 3.41 µM
  TGI: 16.9 µM
[50]
  GI50: 3.77 µM
  TGI: 16.4 µM
[51]
  GI50: 1990 nM
  TGI: 5.83 µM
[52]
  GI50: 3.34 µM
  TGI: 14.7 µM
[53]
  GI50: 3.63 µM
  TGI: 14.4 µM
[54]
  GI50: 3.13 µM
  TGI: 16.9 µM
[55]
  GI50: 2510 nM
  TGI: 7.72 µM
[56]
  GI50: 2690 nM
  TGI: 12.4 µM
[57]
  GI50: 3.85 µM
  TGI: 15.3 µM
